Where a SMILES comes first, the peptide text is derived from it. Bridges are numbered along the chain shown (N, C = ends).
Assays:
[1] = test system: CaCo-2 cells; test: 3H-taurocholate (bile acid) absorption by CaCo-2 monolayer; assay type: cell-based, human; conditions: for Absorption of 3H-taurocholate (kinetics experiment): 16-day grown CaCo-2 monolayers, up to 60 minutes incubation; for Absorption of 3H-taurocholate (kinetics experiment) / Absorption of 3H-taurocholate (bar graph experiment): 30 minutes pre-incubation; for Absorption of 3H-taurocholate (bar graph experiment): CaCo-2 cells grown for 20 days, 60 minutes incubation, quadruplets
Procedure: (§1) CaCo-2 cell culture: CaCo-2, human colon carcinoma cells, were obtained from American Type Culture Collection (ATCC) and cultured in DMEM medium containing 10% fetal bovine serum, 1% penicillin-streptomycin, 2 mM L-glutamine, 1% non-essential-amino acids. Cells were fed fresh medium every third day and grown for 16-21 days to form completely differentiated monolayer. Fully differentiated CaCo-2 cells are known to express high density of GC-C receptors.
Preparation of ^3H-taurocholate Cocktail: Phosphatidyl choline was dissolved in ethanol to make 50 mM stock solution. Calculated volume of the stock solution of phosphatidyl choline was mixed with 3H-taurocholate in a plastic tube and dried under argon gas at 80° C. The dried material was dissolved in transport buffer to get the final concentration of phosphatidyl choline (0.5 mM) and of 3H-taurocholate 10 μCi/mL.
CaCo-2 cells were grown in 24-well plates for 16 days to allow complete monolayer formation and cell differentiation. Completely differentiated monolayers were then pre-incubated with 250 μL of the transport buffer (HEPES 25 mM, NaCl 120 mM, KCl 5.4 mM, CaCl2 1.8 mM and MgSO4, pH 7.5) containing either SP-304 alone or in combination with PDE inhibitors such as IBMX, SS and ZAP. The monolayers were pre-incubated with transport buffer containing either of the following: vehicle (control), 1 mM 8-bromo-cGMP, 500 μM SS, 500 μM ZAP, 1 μM SP-304, 0.1 μM SP-304+500 μM SS and 1 μM SP-304+500 μM ZAP. After the indicated pre-incubation time, 50 μL of ^3H-taurocholate (1 μCi) cocktail was added and cells were incubated for an additional 60 minutes, washed three times with ice cold PBS. Cells were lysed with 0.5 N NaOH for 4 hours and radioactivity in the lysate was counted in a scintillation counter.
16-day grown monolayers of CaCo-2 cells in 24-well plates were pre-incubated with transport buffer containing the compounds as indicated in the figure for 30 minutes. After the pre-incubation, 1 μCi of ^3H-taurocholate cocktail was added in each well and cells were further incubated for 60 minutes. Cells were washed three times with ice cold PBS and lysed with 0.5 N NaOH and lysates were counted for radioactivity in a scintillation counter. Results are expressed as an average of three determinations. Results on the x-axis were plotted in logarithmic scale.
After the pre-incubation, 1 μCi of ^3H-taurocholate cocktail was added in each well and cells were further incubated for 60 minutes. Cells were washed three times with ice cold PBS and lysed with 0.5 N NaOH and lysates were counted for radioactivity in a scintillation counter. This experiment was run in quadruplets and results are expressed as mean±SD.
The procedure used in this experiment was essentially the same except that a lower concentration of ZAP (250 μM) in combination experiments with SP-304.

[2] = target: T1, GC-C receptors (Homo sapiens, UniProt P25092); test: Cyclic GMP stimulation assay in CaCo-2 cells; assay type: cell-based; conditions: CaCo-2 monolayers; for Effect of PDE inhibitor on stimulation of cGMP production by SP-304: in combination with SP-304, 30 minutes
T1 construct: Fully differentiated CaCo-2 cells are known to express high density of GC-C receptors; host or cells: CaCo-2 human colon carcinoma cells, differentiated monolayers
T1 sequence (P25092 24-1073): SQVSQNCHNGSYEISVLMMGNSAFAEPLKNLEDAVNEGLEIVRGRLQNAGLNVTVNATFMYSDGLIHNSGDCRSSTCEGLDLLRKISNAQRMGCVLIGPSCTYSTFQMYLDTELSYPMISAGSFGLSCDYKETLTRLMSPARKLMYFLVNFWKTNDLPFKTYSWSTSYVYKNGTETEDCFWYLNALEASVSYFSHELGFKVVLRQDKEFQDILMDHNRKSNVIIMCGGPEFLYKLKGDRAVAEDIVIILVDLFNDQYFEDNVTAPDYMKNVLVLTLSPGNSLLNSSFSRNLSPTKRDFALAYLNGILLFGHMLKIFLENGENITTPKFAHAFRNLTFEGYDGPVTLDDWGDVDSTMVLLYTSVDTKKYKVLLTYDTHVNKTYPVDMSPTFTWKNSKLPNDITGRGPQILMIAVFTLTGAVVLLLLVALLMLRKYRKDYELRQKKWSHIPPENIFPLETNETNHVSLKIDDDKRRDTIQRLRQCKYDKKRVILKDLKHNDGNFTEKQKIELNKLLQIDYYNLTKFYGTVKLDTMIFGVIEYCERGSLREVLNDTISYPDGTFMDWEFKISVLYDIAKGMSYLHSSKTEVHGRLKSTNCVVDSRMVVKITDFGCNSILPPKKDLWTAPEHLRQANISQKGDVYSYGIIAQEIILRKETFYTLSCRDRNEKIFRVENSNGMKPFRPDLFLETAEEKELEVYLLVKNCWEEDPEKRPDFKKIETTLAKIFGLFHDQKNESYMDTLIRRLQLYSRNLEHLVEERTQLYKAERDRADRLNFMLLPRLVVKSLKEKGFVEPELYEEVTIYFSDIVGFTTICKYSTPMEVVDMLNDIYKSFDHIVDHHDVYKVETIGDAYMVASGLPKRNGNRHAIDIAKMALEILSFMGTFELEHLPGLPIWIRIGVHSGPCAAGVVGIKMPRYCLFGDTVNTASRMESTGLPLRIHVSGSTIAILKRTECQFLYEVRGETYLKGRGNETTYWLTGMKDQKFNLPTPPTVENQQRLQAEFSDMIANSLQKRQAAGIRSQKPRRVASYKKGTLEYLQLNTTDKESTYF
Procedure: as §1
Cyclic GMP stimulation assay: Biological activity of the GCRA peptides was assayed as previously reported (5). Briefly, 16 days grown monolayers of CaCo-2 cells in 24-well plates were washed twice with 250 μl of DMEM containing 50 mM HEPES (pH 7.4), pre-incubated at 37° C. for 10 min with 250 μl of DMEM containing 50 mM HEPES (pH 7.4) and 1 mM isobutylmethylxanthine (IBMX), followed by incubation with GCRA peptides (0.1 nM to 10 μM) for 30 min. The medium was aspirated, and the reaction was terminated by the addition of 3% perchloric acid. Following centrifugation, and neutralization with 0.1 N NaOH, the supernatant was used directly for measurements of cGMP using an ELISA kit (Caymen Chemical, Ann Arbor, Mich.)
Monolayers were treated 500 μL of serum free DMEM for 30 minutes with either SP-304 alone or in combination with phosphodiesterase inhibitors such as, 3-isobutyl-1-methylxanthine (IBMX), sulindac sulfone (SS) and zaprinast (ZAP). After the incubation, monolayers were lysed with 250 μL of 3% perchloric acid. The lysate was neutralized with 0.1 N NaOH and used for ELISA to determine the concentration of cGMP. The assay procedure was essentially the same as described (5). […] Since CaCo-2 cells overexpress phosphodiesterases (PDE), GC-C agonists are used in combination with PDE inhibitors to measure the actual stimulatory effect of GC-C agonists.

[3] = In vitro proteolytic stability using simulated gastric fluid (SGF) digestion, HPLC analysis; assay type: in vitro ADME; conditions: 0 min vs 120 min, HPLC (FIG. 1B)
Procedure: FIG. 1B is a schematic representation of the results of HPLC chromatographic analyses of SP-304 samples after incubation with SGF at indicated times (0 min in the upper panel and 120 min in the lower panel). […] The arrows indicate the elution position of SP-304.
The stability of the GRCA peptide according to the invention is determined in the presence of simulated gastric fluid (SGF). GRCA peptide (final concentration of 8.5 mg/ml) is incubated in SGF (Proteose peptone (8.3 g/liter; Difco), D-Glucose (3.5 g/liter; Sigma), NaCl (2.05 g/liter; Sigma), KH2PO4 (0.6 g/liter; Sigma), CaCl2 (0.11 g/liter), KCl (0.37 g/liter; Sigma), Porcine bile (final 1× concentration 0.05 g/liter; Sigma) in PBS, Lysozyme (final 1× concentration 0.10 g/liter; Sigma) in PBS, Pepsin (final 1× concentration 0.0133 g/liter; Sigma) in PBS). SGF is made on the day of the experiment and the pH is adjusted to 2.0±0.1 using HCl or NaOH as necessary. After the pH adjustment, SGF is sterilized filtered with 0.22 μm membrane filters. SP-304 (final concentration of 8.5 mg/ml) is incubated in SGF at 37° C. for 0, 15, 30, 45, 60 and 120 min in triplicate aliquots. Following incubations, samples are snap frozen in dry ice then are stored in a −80° C. freezer until they are assayed in duplicate.

[4] = In vitro proteolytic stability using simulated intestinal fluid (SIF) digestion, HPLC analysis; assay type: in vitro ADME
Procedure: FIG. 2B is a schematic representation of the results of HPLC chromatographic analyses of SP304 samples after incubation with (A) heat inactivated SIF for 300 min or with (B) SIF for 120 min. […] Arrows indicate the position of SP-304.
Arrow indicates the elution position of SP-304 peptide. […] These new peptide peaks represent the possible degradation products of SP-304.
Arrow indicates the elution position of SP-332 peptide.
Arrows indicate the elution position of SP-333.
The stability of the GRCA peptide is also evaluated against digestion with simulated intestinal fluid (SIF). SIF solution was prepared by the method as described in the United States Pharmacopoeia, 24th edition, p2236. The recipe to prepare SIF solution is as described below. The SIF solution contains NaCl (2.05 g/liter; Sigma), KH2PO4 (0.6 g/liter; Sigma), CaCl2 (0.11 g/liter), KCl (0.37 g/liter; Sigma), and Pacreatin 10 mg/ml. The pH is adjusted to 6 and the solution is filter sterilized. A solution of SP-304 (8.5 mg/ml) is incubated in […] at 37° C. for 0, 30, 60, 90, 120, 150 and 300 min in triplicate aliquots. Following incubations, samples are removed and snap frozen with dry ice and stored in a −80° C. freezer until they are assayed in duplicate. F
The integrity of GRCA peptide is evaluated by HPLC by essentially using the method described for SGF digestion.

[5] = test system: patients with chronic idiopathic constipation (CIC); test: Plecanatide Phase IIb/III trial in patients with chronic idiopathic constipation; assay type: in vivo, human
Procedure: The randomized, double-blind, placebo-controlled, repeat-dose, dose-ranging study was designed to determine whether plecanatide could increase the number of complete spontaneous bowel movements (CSBM's) and impact other parameters such as stool consistency, straining and time to first bowel movement in patients with CIC. The 12-week study, which included 951 CIC patients at 113 clinical sites in the United States, evaluated 3 doses of plecanatide (0.3, 1.0, 3.0 mg) plus a placebo arm.

[6] = test system: animal models; test: Animal models, oral administration of plecanatide; assay type: in vivo
[7] = simulated gastric fluid (SGF) with Pepsin (0.0133 g/liter), Lysozyme, Porcine bile, pH 2.0±0.1; conditions: 37° C., up to 120 min
[8] = Phase IIb/III clinical study, oral, CIC

Compound: Nc1nc2c(nc(Br)n2[C@@H]2O[C@@H]3COP(=O)(O)O[C@H]3[C@H]2O)c(=O)[nH]1 [8-Br-cGMP, 8-bromo-cGMP, reference compound]
- Absorption of 3H-taurocholate (kinetics experiment) [1]: inhibited
- Absorption of 3H-taurocholate (bar graph experiment) [1]: inhibited

Compound: CC(C)Cn1c(=O)n(C)c(=O)c2[nH]cnc21 [IBMX, 3-isobutyl-1-methylxanthine]
- Effect of PDE inhibitor on stimulation of cGMP production by SP-304 [2]: synergistic effects

Compound: CC(C)C[C@H](NC(=O)[C@@H]1CSSC[C@@H]2NC(=O)[C@H](CC(C)C)NC(=O)[C@H](CCC(=O)O)NC(=O)[C@@H](NC(=O)[C@H](CCC(=O)O)NC(=O)[C@H](CC(=O)O)NC(=O)[C@@H](N)CC(N)=O)CSSC[C@H](NC(=O)[C@H](C)NC(=O)[C@H](C(C)C)NC(=O)[C@H](CC(N)=O)NC(=O)[C@H](C(C)C)NC2=O)C(=O)N[C@@H]([C@@H](C)O)C(=O)NCC(=O)N1)C(=O)O [SP-304, Asn^1-Asp^2-Glu^3-Cys^4-Glu^5-Leu^6-Cys^7-Val^8-Asn^9-Val^10-Ala^11-Cys^12-Thr^13-Gly^14-Cys^15-Leu^16] (H-NDECELCVNVACTGCL-OH; disulfide 4-12, 7-15; N-terminus assumed)
- HPLC major peak after incubation with SGF [3]: resistant to SGF digestion
- HPLC peak after incubation with SIF for 60 min ([4]; 0 vs 60 min, HPLC (FIG. 7D)): completely vanished
- HPLC peak after incubation with SIF for 120 min ([4]; 120 min, HPLC (FIG. 2B, 7E, 7F)): completely converted SP-304 into another peptide
- cGMP production by CaCo-2 cells in response to stimulation ([2]; 30 minutes): produced cGMP
- Absorption of 3H-taurocholate (kinetics experiment) [1]: inhibited
- Absorption of 3H-taurocholate (bar graph experiment) [1]: inhibited
- Inhibition in absorption of 3H-taurocholate, SP-304 alone ([1]; SP-304 0.1 μM alone): did not produce much inhibition
- Inhibition of 3H-taurocholate absorption, SP-304 in combination with ZAP ([1]; SP-304 0.1 μM in combination with ZAP (250 μM)): greater effect on inhibition
- Overall responder rate ([5]; 3 mg dose, 12-week treatment, CIC patients (placebo 10.7%), p=0.009): 19%
- Mean increase in CSBMs over the 12-week treatment period ([5]; 3 mg dose, CIC patients, p<0.001): 2.13
- Incidence of diarrhea ([5]; 3 mg, CIC patients (placebo incidence 1.3%)): 9.7%
- Key secondary endpoints ([5]; Phase IIb/III clinical study, CIC patients): statistically significant improvements
- Primary and key secondary endpoints of the study [5, 8]: met the primary and key secondary endpoints
- Tolerability [5, 8]: well tolerated
- GI inflammation [6]: ameliorates GI inflammation
- Intestinal secretion [6]: promotes intestinal secretion

Compound: CC1=C(CC(=O)O)c2cc(F)ccc2/C1=C\c1ccc(S(C)(=O)=O)cc1 [SS, sulindac sulfone]
- Effect of PDE inhibitor on stimulation of cGMP production by SP-304 [2]: synergistic effects

Compound: CCCOc1ccccc1-c1nc2nn[nH]c2c(=O)[nH]1 [ZAP, zaprinast]
- Production of cGMP among the PDE inhibitors ([2]; in combination with SP-304): maximum production of cGMP
- Effect of PDE inhibitor on stimulation of cGMP production by SP-304 [2]: synergistic effects

Compound: Asn^1-Asp^2-Glu^3-Cys^4-Glu^5-Leu^6-Cys^7-Val^8-Asn^9-Val^10-Ala^11-Cys^12-Thr^13-Gly^14-Cys^15-Leu^16
- not cleaved [7]: major peak did not change after 120 min

From patent US20140187470A1 (Synergy Pharmaceuticals Inc., priority 2013, published 2014)
